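48-hour exposure; five concentrations; linearly interpolated endpoints. TGI denotes the concentration required for complete inhibition of growth.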
Experiments:
Assay in all cases: NCI-60 cell line screen, 48 h
[1] = test system: NCI-H522 lung
[2] = test system: SN12C renal
[3] = test system: 786-0 renal
[4] = test system: U251 CNS
[5] = test system: CCRF-CEM leukemia
[6] = test system: HT29 colon
[7] = test system: KM12 colon
[8] = test system: MDA-N
[9] = test system: SNB-19 CNS
[10] = test system: BT-549 breast
[11] = test system: IGROV1 ovarian
[12] = test system: MDA-MB-231 breast
[13] = test system: HL-60(TB) leukemia
[14] = test system: UACC-62 melanoma
[15] = test system: SF-539 CNS
[16] = test system: MCF7 breast
[17] = test system: SK-OV-3 ovarian
[18] = test system: A498 renal
[19] = test system: A549 NSCLC
[20] = test system: HOP-62 NSCLC
[21] = test system: K-562 leukemia
[22] = test system: SF-295 CNS
[23] = test system: DU-145 prostate
[24] = test system: OVCAR-8 ovarian
[25] = test system: T-47D breast
[26] = test system: MDA-MB-435
[27] = test system: HCT-116 colon
[28] = test system: OVCAR-3 ovarian
[29] = test system: UO-31 renal
[30] = test system: MOLT-4 leukemia
[31] = test system: ACHN renal
[32] = test system: SF-268 CNS
[33] = test system: SK-MEL-5 melanoma
[34] = test system: COLO 205 colon
[35] = test system: NCI-H460 lung
[36] = test system: HOP-92 NSCLC
[37] = test system: NCI-H226 lung
[38] = test system: PC-3 prostate
[39] = test system: SR leukemia
[40] = test system: SNB-75 CNS
[41] = test system: HS 578T breast
[42] = test system: UACC-257 melanoma
[43] = test system: SK-MEL-28 melanoma
[44] = test system: NCI/ADR-RES ovarian
[45] = test system: OVCAR-5 ovarian
[46] = test system: HCT-15 colon
[47] = test system: SW-620 colon
[48] = test system: TK-10 renal
[49] = test system: MALME-3M melanoma
[50] = test system: HCC-2998 colon
[51] = test system: NCI-H23 lung
[52] = test system: EKVX NSCLC
[53] = test system: CAKI-1 renal
[54] = test system: SK-MEL-2 melanoma
[55] = test system: LOX IMVI melanoma
[56] = test system: M14 melanoma
[57] = test system: OVCAR-4 ovarian

Measured: TGI

CCCNc1[nH]c(C(=O)c2ccccc2)c(N)c1C(=S)Nc1ccccc1
> 100 µM: all assays above
